The values that follow come from patent US20100267561A1, “HERBICIDAL PYRIDAZINONE DERIVATIVES” (priority 2007, published 2010).

Assay [1] concerns giant foxtail (Setaria faberi). Description: Test A pre-/postemergence plant response. It is filed as in vivo. The following applies: for pest or weed control at 31 g/ha / pest or weed control at 125 g/ha: Setaria faberi, 240 h, read-out: Plant response rating, Foxtail, Giant. Put shortly: (§1)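 Seeds were planted in blended loam soil and sand, then treated preemergence by directed soil spray. At that time, emerged plants (one- to two-leaf, 2–10 cm) received postemergence applications of the same surfactant-containing formulation. Injury was assessed visually on a 0–100 scale after approximately 10 days.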

The test system of assay [2] is wheat (Triticum aestivum). Description: Test A pre-/postemergence plant response. It is filed as in vivo. The following applies: for plant injury at 31 g/ha / plant injury at 125 g/ha: Triticum aestivum, 240 h, read-out: Plant response rating, Wheat. Put shortly: as §1
Where [3] appears, read: Postemergence, 31 g ai/ha, 0 to 100 scale, 0 no effect, 100 complete control.
The mark [4] stands for this setting: Postemergence, 125 g ai/ha, 0 to 100 scale, 0 no effect, 100 complete control.
The mark [5] stands for this setting: Preemergence, 31 g ai/ha, 0 to 100 scale, 0 is no effect, 100 is complete control.
The mark [6] stands for this setting: Preemergence, 125 g ai/ha, 0 to 100 scale (0 no effect, 100 complete control).
Setting [7] is: post-emergence, Postemergence, 31 g ai/ha, 0 to 100 scale (0 no effect, 100 complete control).
Setting [8] is: post-emergence, Postemergence, 125 g ai/ha, 0 to 100 scale, 0 no effect, 100 complete control.
The mark [9] stands for this setting: pre-emergence, Preemergence, 31 g ai/ha, 0 to 100 scale, 0 is no effect, 100 is complete control.
Setting [10] is: pre-emergence, Preemergence, 125 g ai/ha, 0 to 100 scale (0 no effect, 100 complete control).

Like-named read-outs stand apart in the source and are kept apart here.

Consider `COc1nn(C)c(=O)c(-n2nc(-c3ccc(Br)cc3)cc2C)c1O` [Compound 82], for which the “Plant response rating, Foxtail, Giant” value in assay [1] (setting [3]) was found to be 100; in assay [1] (setting [4]), 100; in assay [1] (setting [5]) it was 90; in assay [1] (setting [6]) it was 100. Moreover, the “Plant response rating, Wheat” value came to 90 in assay [2] (setting [3]), 100 in assay [2] (setting [4]), 50 in assay [2] (setting [5]) and 90 in assay [2] (setting [6]).

Consider `Cc1cn(-c2ccc(C(F)(F)F)cc2)nc1-c1c(O)cnn(C)c1=O` [Compound 85, 5-hydroxy-2-methyl-4-[4-methyl-1-[4-(trifluoromethyl)phenyl]-1H-pyrazol-3-yl]-3(2H)-pyridazinone], for which the pest or weed control at 31 g/ha in assay [1] (setting [7]) and in assay [1] (setting [9]) was 0% each time. For the same compound, the pest or weed control at 125 g/ha in assay [1] (setting [8]) came out at 60%; in assay [1] (setting [10]) it was 100%. Besides, the plant injury at 31 g/ha in assay [2] (setting [7]) and in assay [2] (setting [9]) was 0% in each case. Also, the plant injury at 125 g/ha in assay [2] (setting [8]) and in assay [2] (setting [10]) was 20% each time.

Regarding `CCc1cc(-c2ccc(Br)cc2)nn1-c1c(O)c(C)nn(C)c1=O` [Compound 74], the “Plant response rating, Foxtail, Giant” value in assay [1] (setting [3]) was 70; in assay [1] (setting [4]), 100; in assay [1] (setting [5]), 90; in assay [1] (setting [6]), 100. The “Plant response rating, Wheat” value in assay [2] (setting [3]) turned out to be 70; in assay [2] (setting [4]), 80; in assay [2] (setting [5]) it was 20; in assay [2] (setting [6]), 60.

Consider `CCCc1cc(-c2ccc(C(F)(F)F)cc2)nn1-c1c(O)cnn(C)c1=O` [Compound 72], for which the “Plant response rating, Foxtail, Giant” value came to 90 in assay [1] (setting [3]), 100 in assay [1] (setting [4]), 70 in assay [1] (setting [5]) and 90 in assay [1] (setting [6]). Besides, the “Plant response rating, Wheat” value was 60 in assay [2] (setting [3]), 90 in assay [2] (setting [4]), 50 in assay [2] (setting [5]) and 80 in assay [2] (setting [6]).

Take `CCc1cc(-c2ccc(Br)cc2)nn1-c1c(O)cnn(CC(F)(F)F)c1=O` [Compound 73]: the “Plant response rating, Foxtail, Giant” value in assay [1] (setting [3]) turned out to be 50; in assay [1] (setting [4]), 100; in assay [1] (setting [5]), 0; in assay [1] (setting [6]), 30. In addition, the “Plant response rating, Wheat” value in assay [2] (setting [3]) is 40; in assay [2] (setting [4]), 70; in assay [2] (setting [5]), 20; in assay [2] (setting [6]), 70.

As for `CCc1c(C)c(-c2ccc(Br)cc2)nn1-c1c(O)cnn(C)c1=O` [Compound 83], the “Plant response rating, Foxtail, Giant” value in assay [1] (setting [3]) is 90; in assay [1] (setting [4]), 100; in assay [1] (setting [5]), 0; in assay [1] (setting [6]), 100. In addition, the “Plant response rating, Wheat” value in assay [2] (setting [3]) was found to be 0; in assay [2] (setting [4]), 60; in assay [2] (setting [5]), 0; in assay [2] (setting [6]) it was 30.

For the compound `Cc1nn(C)c(=O)c(-c2nc(-c3ccc(Cl)cc3)sc2C)c1O` [Compound 79, 4-[2-(4-chlorophenyl)-5-methyl-4-thiazolyl]-5-hydroxy-2,6-dimethyl-3(2H)-pyridazinone], the pest or weed control at 31 g/ha in assay [1] (setting [7]) and in assay [1] (setting [9]) was 10% throughout. The values for the pest or weed control at 125 g/ha in assay [1] (setting [8]) and in assay [1] (setting [10]) were 70% and 100%, respectively. The plant injury at 31 g/ha in assay [2] (setting [7]) and in assay [2] (setting [9]) was 0% each time. Also, the results for the plant injury at 125 g/ha in assay [2] (setting [8]) and in assay [2] (setting [10]) were 50% and 60%, respectively.
